# Source: ChEMBL document CHEMBL1147725, “Identification and biological characterization of 6-aryl-7-isopropylquinazolinones as novel TRPV1 antagonists that are effective in models of chronic pain” (J Med Chem, 2006)
# Key:
# [1] = Plasma concentration in rat at 3 mg/kg, po after 9 hrs; type: ADME, organism-based; design: dose 3 mg/kg, route oral; conditions: Wistar Han
# [2] = Plasma concentration in rat at 1 mg/kg, iv after 1.5 hrs; type: ADME, organism-based; design: dose 1 mg/kg, route intravenous; conditions: Wistar Han
# [3] = Plasma concentration in rat at 3 mg/kg, po after 1.5 hrs; type: ADME, organism-based; design: dose 3 mg/kg, route oral; conditions: Wistar Han
# [4] = Tmax in rat brain at 3 mg/kg, po; type: ADME, organism-based; design: dose 3 mg/kg, route oral; conditions: Wistar Han
# Rattus norvegicus [5] = test: Concentration in rat brain at 10 mg/kg, po after 1.5 hrs; type: ADME, organism-based, Wistar Han; design: dose 10 mg/kg, route oral; conditions: in vivo
# [6] = Plasma concentration in rat at 1 mg/kg, iv after 1 hrs; type: ADME, organism-based; design: dose 1 mg/kg, route intravenous; conditions: Wistar Han
# [7] = Plasma concentration in rat at 3 mg/kg, po after 18 hrs; type: ADME, organism-based; design: dose 3 mg/kg, route oral; conditions: Wistar Han
# [8] = Plasma concentration in rat at 10 mg/kg, po after 1.5 hrs; type: ADME, organism-based; design: dose 10 mg/kg, route oral; conditions: Wistar Han
# [9] = Plasma concentration in rat at 10 mg/kg, po after 0.5 hrs; type: ADME, organism-based; design: dose 10 mg/kg, route oral; conditions: Wistar Han
# [10] = Plasma concentration in rat at 10 mg/kg, po after 6 hrs; type: ADME, organism-based; design: dose 10 mg/kg, route oral; conditions: Wistar Han
# [11] = Plasma concentration in rat at 10 mg/kg, po after 1 hrs; type: ADME, organism-based; design: dose 10 mg/kg, route oral; conditions: Wistar Han
# [12] = Plasma concentration in rat at 1 mg/kg, iv after 2 hrs; type: ADME, organism-based; design: dose 1 mg/kg, route intravenous; conditions: Wistar Han
# Rattus norvegicus [13] = test: Concentration in rat brain at 10 mg/kg, po after 2 hrs; type: ADME, organism-based, Wistar Han; design: dose 10 mg/kg, route oral; conditions: in vivo
# Rattus norvegicus [14] = test: Concentration in rat brain at 10 mg/kg, po after 4 hrs; type: ADME, organism-based, Wistar Han; design: dose 10 mg/kg, route oral; conditions: in vivo
# [15] = Plasma concentration in rat at 3 mg/kg, po after 24 hrs; type: ADME, organism-based; design: dose 3 mg/kg, route oral; conditions: Wistar Han
# Rattus norvegicus [16] = test: Concentration in rat brain at 3 mg/kg, po after 9 hrs; type: ADME, organism-based, Wistar Han; design: dose 3 mg/kg, route oral; conditions: in vivo
# Rattus norvegicus [17] = test: Concentration in rat brain at 1 mg/kg, iv after 6 hrs; type: ADME, organism-based, Wistar Han; design: dose 1 mg/kg, route intravenous; conditions: in vivo
# [18] = Plasma concentration in rat at 10 mg/kg, po after 2 hrs; type: ADME, organism-based; design: dose 10 mg/kg, route oral; conditions: Wistar Han
# [19] = Plasma concentration in rat at 10 mg/kg, po after 24 hrs; type: ADME, organism-based; design: dose 10 mg/kg, route oral; conditions: Wistar Han
# [20] = Plasma concentration in rat at 1 mg/kg, iv after 0.5 hrs; type: ADME, organism-based; design: dose 1 mg/kg, route intravenous; conditions: Wistar Han
# [21] = Plasma concentration in rat at 3 mg/kg, po after 1 hrs; type: ADME, organism-based; design: dose 3 mg/kg, route oral; conditions: Wistar Han
# Rattus norvegicus [22] = test: Concentration in rat brain at 3 mg/kg, po after 0.16 hrs; type: ADME, organism-based, Wistar Han; design: dose 3 mg/kg, route oral; conditions: in vivo
# [23] = Plasma concentration in rat at 10 mg/kg, po after 9 hrs; type: ADME, organism-based; design: dose 10 mg/kg, route oral; conditions: Wistar Han
# [24] = Aqueous solubility at pH 6.8 and 25 degC; type: physicochemical; conditions: aqueous medium
# [25] = Plasma concentration in rat at 1 mg/kg, iv after 0.033 hrs; type: ADME, organism-based; design: dose 1 mg/kg, route intravenous; conditions: Wistar Han
# Rattus norvegicus [26] = test: Concentration in rat brain at 3 mg/kg, po after 6 hrs; type: ADME, organism-based, Wistar Han; design: dose 3 mg/kg, route oral; conditions: in vivo
# Rattus norvegicus [27] = test: Concentration in rat brain at 1 mg/kg, iv after 1.5 hrs; type: ADME, organism-based, Wistar Han; design: dose 1 mg/kg, route intravenous; conditions: in vivo
# [28] = Cmax in rat plasma at 3 mg/kg, po; type: ADME, organism-based; design: dose 3 mg/kg, route oral; conditions: Wistar Han
# Rattus norvegicus [29] = test: Cmax in rat brain at 3 mg/kg, po; type: ADME, organism-based, Wistar Han; design: dose 3 mg/kg, route oral; conditions: in vivo
# [30] = molecular target: Transient receptor potential cation channel subfamily V member 1 (Rattus norvegicus) (UniProt O35433); test: Effect on capsaicin induced mechanical hyperalgesia in rat; type: functional
# Sequence of Transient receptor potential cation channel subfamily V member 1 (Rattus norvegicus) (O35433 whole entry): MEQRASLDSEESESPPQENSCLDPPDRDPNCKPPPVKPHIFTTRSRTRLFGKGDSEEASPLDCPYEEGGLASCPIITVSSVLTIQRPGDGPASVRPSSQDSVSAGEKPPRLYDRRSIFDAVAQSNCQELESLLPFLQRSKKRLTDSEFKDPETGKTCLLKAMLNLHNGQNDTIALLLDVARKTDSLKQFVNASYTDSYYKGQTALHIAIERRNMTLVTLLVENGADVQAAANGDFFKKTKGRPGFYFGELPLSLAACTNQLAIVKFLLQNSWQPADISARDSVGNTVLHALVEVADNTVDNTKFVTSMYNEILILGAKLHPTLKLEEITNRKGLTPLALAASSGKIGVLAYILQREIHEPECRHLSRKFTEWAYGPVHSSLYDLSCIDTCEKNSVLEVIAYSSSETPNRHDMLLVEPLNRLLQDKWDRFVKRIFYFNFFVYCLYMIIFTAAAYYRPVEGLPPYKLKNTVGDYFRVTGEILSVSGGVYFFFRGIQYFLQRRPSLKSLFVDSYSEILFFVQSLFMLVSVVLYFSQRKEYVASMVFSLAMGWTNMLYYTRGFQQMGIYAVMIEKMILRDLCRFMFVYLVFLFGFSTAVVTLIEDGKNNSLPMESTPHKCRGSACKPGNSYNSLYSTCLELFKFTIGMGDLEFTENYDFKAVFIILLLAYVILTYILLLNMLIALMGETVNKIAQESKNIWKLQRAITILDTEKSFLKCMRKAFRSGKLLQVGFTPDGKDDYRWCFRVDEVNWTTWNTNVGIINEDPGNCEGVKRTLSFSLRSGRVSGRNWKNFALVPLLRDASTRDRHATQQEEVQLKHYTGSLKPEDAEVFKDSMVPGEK
# [31] = Plasma concentration in rat at 1 mg/kg, iv after 0.16 hrs; type: ADME, organism-based; design: dose 1 mg/kg, route intravenous; conditions: Wistar Han
# [32] = Plasma concentration in rat at 10 mg/kg, po after 18 hrs; type: ADME, organism-based; design: dose 10 mg/kg, route oral; conditions: Wistar Han
# [33] = Volume of distribution in rat at 1 mg/kg, iv; type: ADME, organism-based; design: dose 1 mg/kg, route intravenous; conditions: Wistar Han, in vivo, read-out: Vdss
# Rattus norvegicus [34] = test: Concentration in rat brain at 10 mg/kg, po after 0.5 hrs; type: ADME, organism-based, Wistar Han; design: dose 10 mg/kg, route oral; conditions: in vivo
# Rattus norvegicus [35] = test: Concentration in rat brain at 10 mg/kg, po after 18 hrs; type: ADME, organism-based, Wistar Han; design: dose 10 mg/kg, route oral; conditions: in vivo
# Rattus norvegicus [36] = test: Concentration in rat brain at 3 mg/kg, po after 24 hrs; type: ADME, organism-based, Wistar Han; design: dose 3 mg/kg, route oral; conditions: in vivo
# Rattus norvegicus [37] = test: Concentration in rat brain at 1 mg/kg, iv after 0.083 hrs; type: ADME, organism-based, Wistar Han; design: dose 1 mg/kg, route intravenous; conditions: in vivo
# [38] = Plasma concentration in rat at 3 mg/kg, po after 6 hrs; type: ADME, organism-based; design: dose 3 mg/kg, route oral; conditions: Wistar Han
smiles,measurement,setting,value
Cc1nc2cc(C(C)C)c(-c3ccc(Cl)c(OCC4CC4)c3)cc2c(=O)[nH]1,concentration at 9 h,[1],904 nM
same,concentration at 1.5 h,[2],1120 nM
same,concentration at 1.5 h,[3],1790 nM
same,Tmax,[4],4 h
same,Ct,Rattus norvegicus [5],1038 pmol/g
same,concentration at 1 h,[6],1330 nM
same,concentration at 18 h,[7],90 nM
same,concentration at 1.5 h,[8],3720 nM
same,concentration at 0.5 h,[9],1460 nM
same,concentration at 6 h,[10],3220 nM
same,concentration at 1 h,[11],2680 nM
same,concentration at 2 h,[12],1080 nM
same,Ct,Rattus norvegicus [13],1424 pmol/g
same,Ct,Rattus norvegicus [14],1515 pmol/g
same,concentration at 24 h,[15],53 nM
same,Ct,Rattus norvegicus [16],249 pmol/g
same,Ct,Rattus norvegicus [17],205 pmol/g
same,concentration at 2 h,[18],4340 nM
same,concentration at 24 h,[19],106 nM
same,concentration at 0.5 h,[20],1180 nM
same,concentration at 1 h,[21],1530 nM
same,Ct,Rattus norvegicus [22],32 pmol/g
same,concentration at 9 h,[23],2900 nM
same,solubility,[24],0.8 µg/mL
same,concentration at 0.033 h,[25],3540 nM
same,Ct,Rattus norvegicus [26],1258 pmol/g
same,Ct,Rattus norvegicus [27],351 pmol/g
same,Cmax,[28],1910 nM
same,Cmax,Rattus norvegicus [29],1666 pmol/g
same,Activity,[30],Dose-dependent effect
same,concentration at 0.16 h,[31],2200 nM
same,concentration at 18 h,[32],583 nM
same,Vd,[33],1.55 L/kg
same,Ct,Rattus norvegicus [34],181 pmol/g
same,Ct,Rattus norvegicus [35],199 pmol/g
same,Ct,Rattus norvegicus [36],< 125 pmol/g
same,Ct,Rattus norvegicus [37],960 pmol/g
same,concentration at 6 h,[38],1860 nM
